Entries after “also recorded” stand apart in the source; their conditions may differ.
Assays:
[1] = tested on: C57BL/6 mice; test: Renal IRI in WT mice: IL-6 levels by ELISA; type: in vivo
Procedure: All experiments were performed in accordance with the National Institutes of Health and Institutional Animal Care and Use Guidelines. The Animal Care and Use Committee of the University of Virginia approved all procedures and protocols. C57BL/6 mice from the Jackson Laboratory and hepcidin knockout mice (HAMP−/−), a kind gift from Dr Cindy Roy (John Hopkins University) were used in this study. All experiments were performed on 8-10 weeks old male mice. Kidney ischemia-reperfusion surgery was performed as previously reported (44). The core temperature of the mice was maintained between 34° C. and 36° C. using a heating pad. After anesthetizing the mice (ketamine, 12 mg/ml; atropine, 0.48 mg/ml; xylazine, 24 mg/ml; […] mixture administered per 20 g body weight), bilateral flank incisions were made, both renal pedicles were exposed, and cross-clamped for 26 minutes (severe I/R injury) or 24 minutes (mild I/R injury). After the determined ischemia, clamps were removed, and kidneys were allowed to reperfuse for 24 hours. Ambient postoperative air temperature was maintained between 30° C. and 32° C. until mice had fully recovered. Sham-operated animals underwent bilateral flank incisions without clamping of renal pedicles. […]
Serum iron (Abcam), hepcidin (Intrinsic Lifescience) and IL-6 levels (eBioscience) were measured using commercial ELISA kits, as per manufacturers instructions.

[2] = tested on: hepcidin knockout mice (HAMP−/−); test: Mild renal IRI in HAMP-/- mice: kidney H-Ferritin and apoptosis (Caspase-3, Bcl-2, TUNEL); type: in vivo; conditions: for kidney Caspase-3 expression: HAMP-/- IRI Vs HAMP-/- Hepcidin-IRI, p<0.007, FIG. 7c; for TUNEL-positive cells in the kidney: hepcidin treated HAMP-/- IRI vs HAMP-/- IRI, FIG. 7g; for kidney H-Ferritin levels: hepcidin treated HAMP-/- IRI vs untreated p<0.05, lower than sham p<0.005, FIG. 7a-b
Procedure: (§1) All experiments were performed in accordance with the National Institutes of Health and Institutional Animal Care and Use Guidelines. The Animal Care and Use Committee of the University of Virginia approved all procedures and protocols. C57BL/6 mice from the Jackson Laboratory and hepcidin knockout mice (HAMP−/−), a kind gift from Dr Cindy Roy (John Hopkins University) were used in this study. All experiments were performed on 8-10 weeks old male mice. Kidney ischemia-reperfusion surgery was performed as previously reported (44). The core temperature of the mice was maintained between 34° C. and 36° C. using a heating pad. After anesthetizing the mice (ketamine, 12 mg/ml; atropine, 0.48 mg/ml; xylazine, 24 mg/ml; […] mixture administered per 20 g body weight), bilateral flank incisions were made, both renal pedicles were exposed, and cross-clamped for 26 minutes (severe I/R injury) or 24 minutes (mild I/R injury). After the determined ischemia, clamps were removed, and kidneys were allowed to reperfuse for 24 hours. Ambient postoperative air temperature was maintained between 30° C. and 32° C. until mice had fully recovered. Sham-operated animals underwent bilateral flank incisions without clamping of renal pedicles. Twenty-four hours later, mice were euthanized, and tissues were harvested.
Apoptotic cells in the kidney were detected by TUNEL assay following the manufacturer's protocol (Roche Diagnostics, Mannheim, Germany). Briefly, PLP-fixed kidney sections were immersed in 3% hydrogen peroxide-methanol (10 minutes) and permeabilized with cold 0.1% Triton-X100 and 0.1% […] (2 minutes). DNA fragments in apoptotic cells were then labeled and identified by terminal transferase dUTP conjugated to fluorescein (Roche Diagnostics) for 60 minutes at room temperature in dark. The apoptotic cells were imaged using a Zeiss Axiovert 200 microscope with Apo Tome (Zeiss).
Snap frozen tissue sections were homogenized in Tris-Triton tissue lysis buffer containing complete protease inhibitor cocktail using a Dounce Homogenizer. Membrane fractions were isolated from the whole kidney lysate using membrane isolation kit (Thermo Pierce) to determine ferroportin expression. H-Ferritin was measured in the whole kidney and spleen lysates. Protein content in the homogenate was estimated using the BCA protein estimation kit. Twenty to thirty microgram of protein per sample were loaded on a 10% NuPage Bis-Tris gel under reducing conditions. The resolved proteins were transferred onto a Nitrocellulose membrane (Licor Bioscience) and probed with goat anti-mouse H-Ferritin (Santa Cruz) and rabbit anti-mouse ferroportin (Novus Biologics) antibodies. The primary antibodies were detected with Donkey anti-goat Alexa 800 and goat anti-rabbit Alexa 800 antibodies (LiCor Bioscience). Mouse monoclonal GAPDH and β-Actin (Abcam) were used as the loading controls and detected using Donkey anti Mouse Alexa 680 antibody (LiCor Bioscience). Quantitation of data was performed using densitometry software (Licor Bioscience).
(§2) For RNA isolation, frozen tissues were re-suspended in RLT buffer (Qiagen Inc, Valencia, Calif.) and homogenized using TissueLyser system (Qiagen Inc, Valencia, Calif.). Total RNA from tissue homogenate was purified using RNAeasy mini kit (Qiagen Inc, Valencia, Calif.) following manufacturers instructions. 1 μg of RNA was used to synthesize cDNA using the iScript cDNA synthesis kit (Bio-Rad). The cDNA template was mixed with iTAQ SYBR green universal super mix (Bio-Rad) and quantitative PCR was carried out on CFX Connect system (Bio-Rad). Predesigned primers for Caspase-3 and Bcl-2 were purchased from Bio-rad. Glyceraldehyde-3-phosphate dehydrogenase (GAPDH) was amplified in parallel and used as the reference gene in quantification. Data is expressed as the relative gene expression and was calculated using the 2 (−ρρC(T)) method.
WT mice injected with hepcidin had higher levels of H-Ferritin and less apoptotic kidney injury. […]

[3] = tested on: C57BL/6 mice; test: Renal IRI in WT mice: plasma creatinine, H&E histology, NGAL; type: in vivo
Procedure: as §1
Animals were divided into three groups, injected intraperitoneally with water and underwent IRI (IRI), injected intraperitoneally with 50-100 μg hepcidin at different time points prior to IRI (Hepcidin-IRI) or were sham operated (Sham). The experimental design is depicted in FIG. 2a.
Renal function was determined by measurement of plasma creatinine, determined using a modified Jaffe colorimetric assay (44).
Kidneys were fixed in buffered formalin for 48 h, embedded in paraffin, sectioned (3-μm thickness), and stained with hematoxylin and eosin (H&E). The extent of acute tubular necrosis (ATN) following IRI was assessed using H&E stained kidney sections. An investigator blinded to the sample identities was used for these analyses to have an unbiased approach.
as §2

[4] = tested on: TKPTS cells; test: In-vitro hypoxia and re-oxygenation of TKPTS cells, Annexin V/PI flow cytometry; type: cell-based, mouse; conditions: 50 μM hepcidin for 24 hours, 1% hypoxia 6 hours, 6 hours re-oxygenation; p<0.005
Procedure: A mouse proximal tubule cell line (TKPTS cells, kindly provided by Dr. E. Bello-Reuss, University of Texas Medical Branch, Galveston, Tex.) was used in these studies. The cells were cultured in advanced DMEM/F12 medium supplemented with glutamine, 7.5% FBS and antibiotics. Cells were grown to 80% confluence and maintained at 37° C. in 5% CO2. All experiments were performed in serum free DMEM/F12 medium for a maximum of 24 hours.
TKPTS cells were subjected to hypoxia using a hypoxic chamber (Stemcell Technologies) for 6 hrs (5% CO2, 1% O2, and 94% N2) followed by re-oxygenation for 6 hrs (5% CO2, 21% 02, and 74% N2). Three culture conditions were set up: 1. Normoxia (which served as the base line control); 2. Hypoxia; and 3. Cells pretreated with 50 μM hepcidin and subjected to hypoxia. Experiments were carried out in serum free advanced DMEM/F12 medium. At the end of re-oxygenation, cells were stained with Annexin V/PI and extent of apoptosis was determined using flow cytometry.
To investigate if hepcidin has a direct anti-apoptotic effect on renal tubular epithelial cells, we subjected murine proximal renal tubular cells (TKPTS) to hypoxia-reoxygenation injury in vitro (34). TKPTS cells were first treated with or without 50 μM hepcidin for 24 hours in 5% serum containing medium. After transferring to serum free medium, the cells were then cultured in 1% hypoxia for 6 hours. […]

## Mouse hepcidin 25 (DTNFPICIFCCKCCNNSQCGICCKT; listed as Mus musculus)
[1]; WT-IRI Vs WT Hepcidin-IRI, p<0.007, FIG. 10a
  serum IL-6 levels: prevented IRI-induced increase in IL-6 levels; also recorded: prevented by Hepcidin
[1]; hepcidin treatment, renal IRI (discussion)
  splenic, renal, and systemic IL-6 levels: significantly prevented IRI-induced increase in splenic, renal, and systemic IL-6 levels
[2]; HAMP-/- Hepcidin-IRI Vs HAMP-/- IRI, p<0.005, FIG. 7d
  kidney Bcl-2 expression: prevented the decrease in Bcl-2 expression; also recorded: higher level of anti apoptotic Bcl2
[2]
  kidney Caspase-3 expression: lower transcriptional activation of pro apoptotic Caspase3
  TUNEL-positive cells in the kidney: markedly reduced
  kidney H-Ferritin levels: significantly higher H ferritin levels
[2]; listed as hepcidin
  kidney Caspase-3 expression: almost completely prevented
  TUNEL-positive cells in the kidney: significantly fewer TUNEL-positive cells
  kidney H-Ferritin levels: significantly higher than in untreated
[3]; 50 versus 100 μg hepcidin, 24 hours before IRI
  plasma creatinine, comparison of doses: no significant differences in plasma creatinine
[3]; IRI Vs Hepcidin-IRI, p<0.001
  kidney NGAL expression: significantly lower expression of NGAL
[3]; hepcidin 50 μg 24 hours before IRI, FIG. 2e
  renal architecture / tubular necrosis (H&E): fewer necrotic tubules and luminal debris
[3]; hepcidin 50 μg injected 2 hours prior to IRI, p<0.001 vs untreated IRI
  plasma creatinine: significantly reduced plasma creatinine levels
[3]; hepcidin 50 μg injected 8 hours prior to IRI, p<0.001 vs untreated IRI
  plasma creatinine: significantly reduced plasma creatinine levels
[3]; single bolus of 50 or 100 μg hepcidin intraperitoneally, 24 hours before IRI, measured 24 hours after IRI, p<0.0001
  plasma creatinine: significantly lowered plasma creatinine levels; also recorded: maximum protection
[4]
  Annexin V/PI positive cells (apoptosis/necrosis): significantly lower Annexin V/PI staining compared to untreated cells; also recorded: reduced to levels seen under normoxia
